Experimental data taken from PubChem BioAssay (NCI).
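48-hour exposure; five concentrations; linearly interpolated endpoints. GI50: concentration for 50% inhibition of growth. TGI: concentration producing complete growth inhibition.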

How the values were obtained:
Experiment in all cases: DTP human tumour cell line panel, 48 h
786-0 renal = test system: 786-0 renal
A498 renal = test system: A498 renal
A549 NSCLC = test system: A549 NSCLC
ACHN renal = test system: ACHN renal
BT-549 breast = test system: BT-549 breast
CAKI-1 renal = test system: CAKI-1 renal
CCRF-CEM leukemia = test system: CCRF-CEM leukemia
COLO 205 colon = test system: COLO 205 colon
DU-145 prostate = test system: DU-145 prostate
EKVX NSCLC = test system: EKVX NSCLC
HCC-2998 colon = test system: HCC-2998 colon
HCT-116 colon = test system: HCT-116 colon
HCT-15 colon = test system: HCT-15 colon
HL-60(TB) leukemia = test system: HL-60(TB) leukemia
HOP-62 NSCLC = test system: HOP-62 NSCLC
HOP-92 NSCLC = test system: HOP-92 NSCLC
HS 578T breast = test system: HS 578T breast
HT29 colon = test system: HT29 colon
IGROV1 ovarian = test system: IGROV1 ovarian
K-562 leukemia = test system: K-562 leukemia
KM12 colon = test system: KM12 colon
LOX IMVI melanoma = test system: LOX IMVI melanoma
M14 melanoma = test system: M14 melanoma
MCF7 breast = test system: MCF7 breast
MDA-MB-231 breast = test system: MDA-MB-231 breast
MDA-MB-435 = test system: MDA-MB-435
MOLT-4 leukemia = test system: MOLT-4 leukemia
NCI-H226 lung = test system: NCI-H226 lung
NCI-H23 lung = test system: NCI-H23 lung
NCI-H460 lung = test system: NCI-H460 lung
NCI-H522 lung = test system: NCI-H522 lung
NCI/ADR-RES ovarian = test system: NCI/ADR-RES ovarian
OVCAR-3 ovarian = test system: OVCAR-3 ovarian
OVCAR-4 ovarian = test system: OVCAR-4 ovarian
OVCAR-5 ovarian = test system: OVCAR-5 ovarian
OVCAR-8 ovarian = test system: OVCAR-8 ovarian
PC-3 prostate = test system: PC-3 prostate
RXF 393 renal = test system: RXF 393 renal
SF-268 CNS = test system: SF-268 CNS
SF-295 CNS = test system: SF-295 CNS
SF-539 CNS = test system: SF-539 CNS
SK-MEL-2 melanoma = test system: SK-MEL-2 melanoma
SK-MEL-28 melanoma = test system: SK-MEL-28 melanoma
SK-MEL-5 melanoma = test system: SK-MEL-5 melanoma
SK-OV-3 ovarian = test system: SK-OV-3 ovarian
SN12C renal = test system: SN12C renal
SNB-19 CNS = test system: SNB-19 CNS
SW-620 colon = test system: SW-620 colon
T-47D breast = test system: T-47D breast
TK-10 renal = test system: TK-10 renal
U251 CNS = test system: U251 CNS
UACC-257 melanoma = test system: UACC-257 melanoma
UACC-62 melanoma = test system: UACC-62 melanoma
UO-31 renal = test system: UO-31 renal
MALME-3M melanoma = test system: MALME-3M melanoma
RPMI-8226 leukemia = test system: RPMI-8226 leukemia
SNB-75 CNS = test system: SNB-75 CNS

## CC1=NN(C2=NS(=O)(=O)c3ccccc3N2C)C(=O)C1
786-0 renal
  TGI: > 100 µM
A498 renal
  TGI: > 100 µM
A549 NSCLC
  TGI: > 100 µM
ACHN renal
  TGI: > 100 µM
BT-549 breast
  TGI: > 100 µM
CAKI-1 renal
  TGI: > 100 µM
CCRF-CEM leukemia
  TGI: > 100 µM
COLO 205 colon
  TGI: > 100 µM
DU-145 prostate
  TGI: > 100 µM
EKVX NSCLC
  TGI: > 100 µM
HCC-2998 colon
  TGI: > 100 µM
HCT-116 colon
  TGI: > 100 µM
HCT-15 colon
  TGI: > 100 µM
HL-60(TB) leukemia
  TGI: > 100 µM
HOP-62 NSCLC
  TGI: > 100 µM
HOP-92 NSCLC
  TGI: > 100 µM
HS 578T breast
  TGI: > 100 µM
HT29 colon
  TGI: > 100 µM
IGROV1 ovarian
  TGI: > 100 µM
K-562 leukemia
  TGI: > 100 µM
KM12 colon
  TGI: > 100 µM
LOX IMVI melanoma
  TGI: > 100 µM
M14 melanoma
  TGI: > 100 µM
MCF7 breast
  TGI: > 100 µM
MDA-MB-231 breast
  TGI: > 100 µM
MDA-MB-435
  TGI: > 100 µM
MOLT-4 leukemia
  TGI: > 100 µM
NCI-H226 lung
  TGI: > 100 µM
NCI-H23 lung
  TGI: > 100 µM
NCI-H460 lung
  TGI: > 100 µM
NCI-H522 lung
  TGI: > 100 µM
NCI/ADR-RES ovarian
  TGI: > 100 µM
OVCAR-3 ovarian
  TGI: > 100 µM
OVCAR-4 ovarian
  TGI: > 100 µM
OVCAR-5 ovarian
  TGI: > 100 µM
OVCAR-8 ovarian
  TGI: > 100 µM
PC-3 prostate
  TGI: > 100 µM
RXF 393 renal
  TGI: > 100 µM
SF-268 CNS
  TGI: > 100 µM
SF-295 CNS
  TGI: > 100 µM
SF-539 CNS
  TGI: > 100 µM
SK-MEL-2 melanoma
  TGI: > 100 µM
SK-MEL-28 melanoma
  TGI: > 100 µM
SK-MEL-5 melanoma
  TGI: > 100 µM
SK-OV-3 ovarian
  TGI: > 100 µM
SN12C renal
  TGI: > 100 µM
SNB-19 CNS
  TGI: > 100 µM
SW-620 colon
  TGI: > 100 µM
T-47D breast
  TGI: > 100 µM
TK-10 renal
  TGI: > 100 µM
U251 CNS
  TGI: > 100 µM
UACC-257 melanoma
  TGI: > 100 µM
UACC-62 melanoma
  TGI: > 100 µM
UO-31 renal
  TGI: > 100 µM

## C=C1C(=O)c2sccc2C(c2ccc(OC)c(OC)c2)C1COC(C)=O (stereo unspecified)
786-0 renal
  GI50: 0.297 µM
  TGI: 3.99 µM
A498 renal
  GI50: 2.13 µM
  TGI: 7.2 µM
A549 NSCLC
  GI50: 3.25 µM
  TGI: 11.5 µM
ACHN renal
  GI50: 1.86 µM
BT-549 breast
  GI50: 2.11 µM
  TGI: 4.79 µM
CAKI-1 renal
  GI50: 2.1 µM
  TGI: 6.57 µM
CCRF-CEM leukemia
  GI50: 0.0661 µM
  TGI: 0.777 µM
COLO 205 colon
  GI50: 2.25 µM
  TGI: 4.89 µM
DU-145 prostate
  GI50: 0.761 µM
  TGI: 2.04 µM
EKVX NSCLC
  GI50: 8.37 µM
  TGI: 21.3 µM
HCC-2998 colon
  GI50: 2.89 µM
  TGI: 7.56 µM
HCT-116 colon
  GI50: 1.62 µM
  TGI: 10.3 µM
HCT-15 colon
  GI50: 2.03 µM
HL-60(TB) leukemia
  GI50: 2.98 µM
  TGI: > 100 µM
HOP-62 NSCLC
  GI50: 6.54 µM
  TGI: 15.7 µM
HOP-92 NSCLC
  GI50: 2.46 µM
  TGI: 6.91 µM
HS 578T breast
  GI50: 2.54 µM
  TGI: 8.4 µM
HT29 colon
  GI50: 1.36 µM
  TGI: 4.01 µM
IGROV1 ovarian
  GI50: 2.27 µM
  TGI: 5.67 µM
K-562 leukemia
  GI50: 0.2 µM
  TGI: > 29.7 µM
KM12 colon
  GI50: 1.21 µM
  TGI: > 25.7 µM
LOX IMVI melanoma
  GI50: 0.173 µM
M14 melanoma
  TGI: 3.1 µM
MALME-3M melanoma
  GI50: 1.5 µM
  TGI: 6.41 µM
MCF7 breast
  GI50: 0.953 µM
  TGI: 2.98 µM
MDA-MB-231 breast
  GI50: 0.551 µM
  TGI: 2.48 µM
MDA-MB-435
  GI50: 1.92 µM
  TGI: 6.18 µM
MOLT-4 leukemia
  GI50: 0.219 µM
  TGI: 0.733 µM
NCI-H226 lung
  GI50: 2.93 µM
  TGI: 8.56 µM
NCI-H23 lung
  GI50: 1.54 µM
  TGI: 4.94 µM
NCI-H460 lung
  GI50: 3.72 µM
  TGI: 14 µM
NCI-H522 lung
  GI50: 1.13 µM
  TGI: 4.04 µM
NCI/ADR-RES ovarian
  GI50: 2.36 µM
OVCAR-3 ovarian
  GI50: 1.67 µM
  TGI: 5.79 µM
OVCAR-4 ovarian
  GI50: 4.81 µM
  TGI: 19.5 µM
OVCAR-5 ovarian
  GI50: 2.42 µM
  TGI: 9.29 µM
OVCAR-8 ovarian
  GI50: 2.74 µM
  TGI: 8.14 µM
PC-3 prostate
  GI50: 1.3 µM
  TGI: 2.81 µM
RPMI-8226 leukemia
  TGI: 0.0366 µM
RXF 393 renal
  GI50: 0.595 µM
  TGI: 1.99 µM
SF-268 CNS
  GI50: 3.44 µM
  TGI: 12.9 µM
SF-295 CNS
  GI50: 4.43 µM
  TGI: 16.5 µM
SF-539 CNS
  GI50: 1.61 µM
  TGI: 3.27 µM
SK-MEL-2 melanoma
  GI50: 10.8 µM
  TGI: 23 µM
SK-MEL-28 melanoma
  GI50: 2.15 µM
  TGI: 4.42 µM
SK-MEL-5 melanoma
  GI50: 1.9 µM
  TGI: 4.74 µM
SK-OV-3 ovarian
  GI50: 5.46 µM
  TGI: 20 µM
SN12C renal
  GI50: 1.33 µM
  TGI: 3.24 µM
SNB-19 CNS
  GI50: 8.47 µM
  TGI: 32.7 µM
SNB-75 CNS
  GI50: 8.39 µM
  TGI: 28.8 µM
SW-620 colon
  GI50: 0.656 µM
  TGI: 2.51 µM
T-47D breast
  GI50: 2.24 µM
  TGI: 5.77 µM
TK-10 renal
  GI50: 1.34 µM
  TGI: 4.85 µM
U251 CNS
  GI50: 1.62 µM
UACC-257 melanoma
  GI50: 1.93 µM
  TGI: 5.77 µM
UACC-62 melanoma
  GI50: 1.43 µM
  TGI: 3.17 µM
UO-31 renal
  GI50: 1.81 µM
  TGI: 3.39 µM
